Assay results published in US8895761B2, “4-phenylpyrane-3,5-diones, 4-phenylthiopyrane-3,5-diones and 2-phenylcyclohexane-1,3,5-triones as herbicides” (Syngenta Limited, priority 2007, dated 2014).

Columns and labels:
Assay type in all cases: in vivo
Lolium perenne (LOLPE) [1] = experiment: Post-emergence herbicidal glasshouse test, Lolium perenne; details: 312 h, rate 250 g/ha, evaluated after 13 days, scale 100 = total damage to plant, 0 = no damage
Procedure: (§1) Seeds of a variety of test species were sown in standard soil in pots. After cultivation for one day (pre-emergence) or after 8 days cultivation (post-emergence) under controlled conditions in a glasshouse (at 24/16° C., day/night; 14 hours light; 65% humidity), the plants were sprayed with an aqueous spray solution derived from the formulation of the technical active ingredient in acetone/water (50:50) solution containing 0.5% Tween 20 (polyoxyethelyene sorbitan monolaurate, CAS RN 9005-64-5). The test plants were then grown in a glasshouse under controlled conditions in a glasshouse (at 24/16° C., day/night; 14 hours light; 65% humidity) and watered twice daily. After 13 days for pre and post-emergence, the test was evaluated ([…] to plant; 0=no damage to plant).
(§2) Setaria faberi (SETFA), Lolium perenne (LOLPE), Alopecurus myosuroides (ALOMY), Echinochloa crus-galli (ECHCG) and Avena fatua (AVEFA).

[2] = tested on: Alopecurus myosuroides (ALOMY); experiment: Pre-emergence herbicidal glasshouse test, Alopecurus myosuroides; details: Alopecurus myosuroides, 312 h, rate 250 g/ha, evaluated after 13 days, scale 100 = total damage to plant, 0 = no damage
Procedure: as §1, §2

Lolium perenne (LOLPE) [3] = experiment: Pre-emergence herbicidal glasshouse test, Lolium perenne; details: 312 h, rate 250 g/ha, evaluated after 13 days, scale 100 = total damage to plant, 0 = no damage
Procedure: as §1, §2

[4] = tested on: Echinochloa crus-galli (ECHCG); experiment: Post-emergence herbicidal glasshouse test, Echinochloa crus-galli; details: Echinochloa crus-galli, 312 h, rate 250 g/ha, evaluated after 13 days, scale 100 = total damage to plant, 0 = no damage
Procedure: as §1, §2

Avena fatua (AVEFA) [5] = experiment: Post-emergence herbicidal glasshouse test, Avena fatua; details: Avena fatua, 312 h, rate 250 g/ha, evaluated after 13 days, scale 100 = total damage to plant, 0 = no damage
Procedure: as §1, §2

[6] = tested on: Echinochloa crus-galli (ECHCG); experiment: Pre-emergence herbicidal glasshouse test, Echinochloa crus-galli; details: Echinochloa crus-galli, 312 h, rate 250 g/ha, evaluated after 13 days, scale 100 = total damage to plant, 0 = no damage
Procedure: as §1, §2

[7] = tested on: Alopecurus myosuroides (ALOMY); experiment: Post-emergence herbicidal glasshouse test, Alopecurus myosuroides; details: Alopecurus myosuroides, 312 h, rate 250 g/ha, evaluated after 13 days, scale 100 = total damage to plant, 0 = no damage
Procedure: as §1, §2

Avena fatua (AVEFA) [8] = experiment: Pre-emergence herbicidal glasshouse test, Avena fatua; details: Avena fatua, 312 h, rate 250 g/ha, evaluated after 13 days, scale 100 = total damage to plant, 0 = no damage
Procedure: as §1, §2

Row | SMILES | pest or weed control at 250 g/ha (Lolium perenne (LOLPE) [1]) | pest or weed control at 250 g/ha [2] | pest or weed control at 250 g/ha (Lolium perenne (LOLPE) [3]) | pest or weed control at 250 g/ha [4] | pest or weed control at 250 g/ha (Avena fatua (AVEFA) [5]) | pest or weed control at 250 g/ha [6] | pest or weed control at 250 g/ha [7] | pest or weed control at 250 g/ha (Avena fatua (AVEFA) [8])
1 | CCc1cc(-c2ccc(Cl)c(F)c2F)ccc1C1=C(O)C(C)(C)OC(C)(C)C1=O [Compound A-47] | 60% | 0% | 50% | 100% | 70% | 30% | 90% | 40%
2 | CCc1cc(-c2ccc(Cl)c(Cl)c2F)ccc1C1=C(O)C(C)(C)OC(C)(C)C1=O [Compound A-48] | 30% | 0% | 0% | 100% | 20% | 0% | 50% | 0%
3 | CCc1cc(-c2ccc(F)cc2)ccc1C1=C(O)C(C)(C)OC(C)(C)C1=O [Compound A-50] | 100% | 60% | 100% | 100% | 80% | 90% | 90% | 60%
4 | CCc1cc(-c2ccc(Cl)cc2F)ccc1C1=C(O)C(C)(C)OC(C)(C)C1=O [Compound A-51] | 50% | 0% | 0% | 70% | 60% | 20% | 60% | 0%
5 | CCc1cc(-c2ccc(Cl)c(C)c2)ccc1C1=C(O)C(C)(C)OC(C)(C)C1=O [Compound A-52] | 40% | 0% | 0% | 70% | 20% | 20% | 40% | 0%
6 | Cc1cc(-c2cc(Cl)cc(Cl)c2)cc(C)c1C1=C(O)[C@@]2(C)CC[C@H](O2)C1=O [Compound A-54] | 40% | 0% | 0% | 80% | 30% | 0% | 40% | 0%
7 | Cc1cc(-c2ccc(F)cc2)cc(C)c1C1=C(O)[C@@]2(C)CC[C@H](O2)C1=O [Compound A-55] | 100% | 70% | 90% | 100% | 90% | 100% | 100% | 70%
8 | CCc1cc(-c2cc(F)cc(Cl)c2)ccc1C1=C(O)C(C)(C)OC(C)(C)C1=O [Compound A-60] | 70% | 0% | 0% | 90% | 70% | 0% | 60% | 0%
9 | CCc1cc(-c2ccc(C(F)(F)F)cc2)ccc1C1=C(O)C(C)(C)OC(C)(C)C1=O [Compound A-70] | 50% | 0% | 0% | 80% | 0% | 0% | 40% | 0%
10 | CCc1cc(-c2cccc(OC)c2)ccc1C1=C(O)C(C)(C)OC(C)(C)C1=O [Compound A-71] | 80% | 0% | 0% | 80% | 0% | 0% | 30% | 0%
11 | CCc1cc(-c2ccc(C)c(F)c2)ccc1C1=C(O)C(C)(C)OC(C)(C)C1=O [Compound A-72] | 70% | 0% | 0% | 80% | 0% | 0% | 0% | 0%
12 | CCc1cc(-c2ccc(C)cc2)ccc1C1=C(O)C(C)(C)OC(C)(C)C1=O [Compound A-73] | 60% | 0% | 0% | 80% | 0% | 0% | 30% | 0%
13 | CCc1cc(-c2cc(Cl)ccc2OC)ccc1C1=C(O)C(C)(C)OC(C)(C)C1=O [Compound A-74] | 70% | 0% | 0% | 100% | 40% | 0% | 80% | 0%
14 | CCc1cc(-c2ccc(F)c(F)c2)ccc1C1=C(O)C(C)(C)OC(C)(C)C1=O [Compound A-75] | 100% | 0% | 40% | 100% | 90% | 0% | 90% | 30%
15 | CCc1cc(-c2ccc(F)c(Cl)c2)ccc1C1=C(O)C(C)(C)OC(C)(C)C1=O [Compound A-76] | 80% | 0% | 0% | 70% | 40% | 0% | 80% | 0%
16 | CCc1cc(-c2ccc(F)c(OC)c2)ccc1C1=C(O)C(C)(C)OC(C)(C)C1=O [Compound A-78] | 100% | 20% | 80% | 100% | 90% | 0% | 80% | 30%
17 | CCc1cc(-c2ccc(F)cc2F)ccc1C1=C(O)C(C)(C)OC(C)(C)C1=O [Compound A-82] | 80% | 10% | 70% | 80% | 0% | 30% | 80% | 20%
18 | CCc1cc(-c2cc(Cl)cc(C(F)(F)F)c2)ccc1C1=C(O)C(C)(C)OC(C)(C)C1=O [Compound A-83] | 70% | 0% | 0% | 80% | 50% | 0% | 80% | 0%
19 | CCc1cc(-c2cc(F)c(F)c(F)c2)ccc1C1=C(O)C(C)(C)OC(C)(C)C1=O [Compound A-84] | 100% | 30% | 70% | 100% | 100% | 30% | 80% | 40%
20 | CCc1cc(-c2ccc(F)cc2OC)ccc1C1=C(O)C(C)(C)OC(C)(C)C1=O [Compound A-85] | 70% | 0% | 70% | 80% | 40% | 20% | 60% | 30%
21 | CCc1cc(-c2cc(F)c(F)cc2F)ccc1C1=C(O)C(C)(C)OC(C)(C)C1=O [Compound A-86] | 90% | 0% | 0% | 100% | 70% | 0% | 80% | 0%
22 | CCc1cc(-c2ccc(F)c(F)c2F)ccc1C1=C(O)C(C)(C)OC(C)(C)C1=O [Compound A-87] | 90% | 0% | 0% | 100% | 90% | 0% | 70% | 0%
